Measurements taken from patent US9889183B2, “PKC activators and anticoagulant in regimen for treating stroke” (BLANCHETTE ROCKEFELLER NEUROSCIENCES INSTITUTE, priority 2010, dated 2018).

Legend:
[1] = tested on: Aβ in neuro2a (N2a) neuroblastoma cells; assay: Aβ production in N2a cells transfected with human APPSwe/PS1D (ELISA); format: cell-based, mouse; details: for levels of intracellular Aβ / levels of secreted Aβ: various concentrations; for levels of intracellular Aβ: FIG. 11a; for levels of secreted Aβ: FIG. 11b; for concentration dependence of Aβ inhibition: up to 10 μM to 100 μM, no evidence of downregulation
Protocol: Cell culture. Rat hippocampal H19-7/IGF-IR cells (ATCC, Manassas, Va.) were plated onto poly-L-lysine coated plates and grown at 35° C. in DMEM/10% FCS for several days until about 50% coverage was obtained. The cells were then induced to differentiate into a neuronal phenotype by replacing the medium with 5 ml N2 medium containing 10 ng/ml basic fibroblast growth factor at 39° C. and grown in T-75 flasks at 37° C. Human SH-SY5Y neuroblastoma cells (ATCC) were cultured in 45% F12K/45% MEM/10% FCS. Mouse N2A neuroblastoma cells were cultured in DMEM/10% FCS without glutamine. Rat hippocampal neurons from 18-day-old embryonic Sprague Dawley rat brains were plated on 12- or 96-well plates coated with poly-D-lysine (Sigma-Aldrich, St. Louis, Mo.) in B-27 neurobasal medium containing 0.5 mM glutamine and 25 μM glutamate (Invitrogen, Carlsbad, Calif.) and cultured for three days in the medium without glutamate. The neuronal cells were grown under 5% CO2 in an incubator maintained at 37° C. for 14 days.
(§1) Aβ Measurement and Cell Viability Assay. Aβ was measured using an Aβ 1-42 human fluorimetric ELISA kit (Invitrogen) according to the manufacturer's instructions. Results were measured in a Biotek Synergy HT microplate reader. AlamarBlue and CyQuant NF (Invitrogen) according to the manufacturer's instructions.
To measure the effects of PKCε activation on Aβ production, mouse neuro2a (N2a) neuroblastoma cells transfected with human APPSwe/PSID were used, which produce large quantities of Aβ. Petanceska et al., J Neurochem. (1996), vol. 74, pp. 1878-1884. […] With bryostatin, which activates PKC by binding to the diacylglycerol-binding site, the inhibition was biphasic with concentrations of 20 nM or higher producing no net effect. This may be explained by the ability of this class of PKC activators to downregulate PKC when used at high concentrations.

[2] = tested on: SH-SY5Y neuroblastoma cells; assay: Cell survival and proliferation (alamar Blue, CyQuant); format: cell-based, human
Protocol: as §1

[3] = tested on: TACE in N2a neuroblastoma cells; assay: TACE assay, N2a cells; format: cell-based; details: N2a mouse neuroblastoma cells, FIG. 13a
Protocol: FIGS. 13a, 13b and 13c show effects of (FIG. 13a) bryostatin, BR-101 (DCP-LA) and BR-111 (DHA-CP6) on TACE activity in N2a neuroblastoma cells transfected with human APPSwe/PS1D; (FIG. 13b) various concentrations of bryostatin on TACE activity in rat cortical primary neurons; and (FIG. 13c) BR-111 (DHA-CP6) on TACE activity in rat cortical primary neurons.
TACE Assay. TACE was measured by incubating 5 μl cell homogenate, 3 μl buffer (50 mM Tris-HCl 7.4 plus 25 mM NaCl plus 4% glycerol), and 1 μl of 100 μM TACE substrate (Aβz-[…]-DPa) (Calbiochem) for 20 min at 37° C. 1.5-ml polypropylene centrifuge tubes. Jin et al., Anal. Biochem. (2002), vol. 302, pp. 269-275. The reaction was stopped by cooling to 4° C. The samples were diluted to 1 ml and the fluorescence was rapidly measured (ex=320 nm, em=420 nm) in a Spex Fluorolog 2 spectrofluorometer.
Buxbaum et al., J Biol. Chem. (1998), vol. 273, pp. 27765-27767; Etcheberrigaray et al., Proc. Natl. Acad. Sci. USA (2006), vol. 103, pp. 8215-8220. However, many of these earlier studies were carried out in fibroblasts and other non-neuronal cell types, which appear to respond differently to PKC activators than neurons.

[4] = tested on: Endothelin-converting enzyme (ECE); assay: ECE assay in neuroblastoma cells; format: cell-based, human; details: bryostatin 0.27 nM, BR-101 1 μM, BR-111 1 μM; FIG. 14
Protocol: ECE assay. […] neuroblastoma cells were incubated with bryostatin (0.27 nM), BR-101 (DCP-LA) (1 μM), and BR-111 (DHA-CP6) (1 μM). Endothelin-converting enzyme (ECE) was measured fluorimetrically using the method of Johnson and Ahn (Anal. Biochem. (2000), vol. 286, pp. 112-118). A sample of cell homogenate (20 μl) was incubated in 50 mM MES-KOH, pH 6.0, 0.01% C12E10 (polyoxyethylene-10-lauryl ether), and 15 μM McaBK2 (7-Methoxycoumarin-4-acetyl [Ala7-(2,4-Dinitrophenyl)Lys9]-bradykinin trifluoroacetate salt) (Sigma-Aldrich). After 60 min at 37° C., the reaction was quenched by adding trifluoroacetic acid to 0.5%. The sample was diluted to 1.4 ml with water and the fluorescence was measured at ex=334 nm, em=398 nm.

SMILES	levels of intracellular Aβ ([1]; 24 hours)	levels of secreted Aβ ([1]; 24 hours)	concentration dependence of Aβ inhibition [1]	effect on cell survival (alamar Blue) [2]	effect on proliferation (CyQuant) [2]	TACE activity [3]	ECE activity [4]	concentrations producing no net effect on Aβ (biphasic inhibition) ([1]; 24 hours)
CCC1CC1CC1CC1CC1CC1CC1CC1CC1CC1CC1CC1CCC(=O)OC (stereo not drawn) [BR-111, methyl-3-(2-((2-((2-((2-((2-((2-ethylcyclopropyl)methyl)cyclopropyl)methyl)cyclopropyl)methyl)-cyclopropyl)methyl)cyclopropyl)methyl)cyclopropyl)propanoate]	markedly reduced	markedly reduced	monotonically increasing inhibition	no effect	no effect	small increases	sustained increase	–
CCC/C=C/C=C/C(=O)O[C@H]1/C(=C/C(=O)OC)C[C@H]2C[C@H]([C@@H](C)O)OC(=O)C[C@H](O)C[C@@H]3C[C@H](OC(C)=O)C(C)(C)[C@](O)(C[C@@H]4C/C(=C/C(=O)OC)C[C@H](/C=C/C(C)(C)[C@]1(O)O2)O4)O3 [Bryostatin-1, bryostatin-1]	markedly reduced	markedly reduced	–	no effect	no effect	small increases	sustained increase	≥ 20 nM
CCCCCC1CC1CC1CC1CCCCCCCC(=O)O (stereo not drawn) [BR-101, 2-[(2-pentylcyclopropyl)methyl]cyclopropaneoctanoic acid]	markedly reduced	markedly reduced	monotonically increasing inhibition	no effect	no effect	small increases	sustained increase	–
